Measured values reported in patent publication US6914045B2, “Glycopeptide antibiotics” (Wyeth Holdings Corporation, priority 2001, dated 2005).

How the values were obtained:
Assay in all cases: in vitro antibacterial evaluation, MIC by broth dilution
Assay type in all cases: cell-based
Streptococcus sp. = conditions: broth dilution, 18 hours at 35° C.; for MIC Streptococcus pneumoniae (ATCC 6301): strain ATCC 6301; for MIC Streptococcus pneumoniae (GC 1894): strain GC 1894; for MIC Streptococcus pyogenes (GC 4563): strain GC 4563; for MIC Streptococcus agalactiae (GC 4564): strain GC 4564; for MIC Streptococcus pneumoniae (GC 4565): strain GC 4565
Method: (§1) Methods for in vitro Antibacterial Evaluation (Table 1)
(§2) The minimum inhibitory concentration (MIC), the lowest concentration of the antibiotic which inhibits growth of the test organism, is determined by the broth dilution method using Muller-Hinton II […] (Baltimore Biological Laboratories) following the recommendations of the National Committee for Clinical Laboratory Standards [Methods for dilution antimicrobial susceptibility tests for bacteria that grow aerobically, approved standard M7-A2, National Committee for Clinical Laboratory Standards, Villanova, Pa.].
(§3) An inoculum level of 5×10^5 CFU/mL, and a range of antibiotic concentrations (64-0.06 μg/mL) is used. […] The test organisms include a spectrum of Gram-positive bacteria comprised of Staphylococcus sp., Streptococcus sp. and Enterococcus sp. These organisms include recent clinical isolates that are resistant to methicillin, penicillin and/or vancomycin.

Staphylococcus sp. = conditions: broth dilution, 18 hours at 35° C.; for MIC Staphylococcus aureus (ATCC 29213): strain ATCC 29213; for MIC Staphylococcus aureus (GC 1131): strain GC 1131; for MIC Staphylococcus aureus (GC 3051): strain GC 3051; for MIC Staphylococcus aureus (GC 3053): strain GC 3053; for MIC Staphylococcus aureus (GC 4541): strain GC 4541; for MIC Staphylococcus aureus (GC 4542): strain GC 4542; for MIC Staphylococcus aureus-SMITH (GC 4543): strain GC 4543; for MIC Staphylococcus aureus (GC 4544): strain GC 4544; for MIC Staphylococcus aureus (GC 4545): strain GC 4545; for MIC Staphylococcus haemolyticus (GC 4546): strain GC 4546; for MIC Coagulase Negative Staphylococcus (GC 4547): strain GC 4547; for MIC Coagulase Negative Staphylococcus (GC 4548): strain GC 4548; for MIC Coagulase Negative Staphylococcus (GC 4549): strain GC 4549; for MIC Coagulase Negative Staphylococcus (GC 4551): strain GC 4551; for MIC Coagulase Negative Staphylococcus (GC 6257): strain GC 6257
Method: as §1, §2, §3

Enterococcus sp. = conditions: broth dilution, 18 hours at 35° C.; for MIC Enterococcus faecalis (ATCC 29212): strain ATCC 29212; for MIC Enterococcus faecalis (GC 2242): strain GC 2242; for MIC Enterococcus faecium (GC 2243): strain GC 2243; for MIC Enterococcus faecalis (GC 2691): strain GC 2691; for MIC Enterococcus faecalis (GC 3059): strain GC 3059; for MIC Enterococcus faecalis (GC 4552): strain GC 4552; for MIC Enterococcus faecalis (GC 4553): strain GC 4553; for MIC Enterococcus faecalis (GC 4554): strain GC 4554; for MIC Enterococcus faecium (GC 4556): strain GC 4556; for MIC Enterococcus faecium (GC 4557): strain GC 4557; for MIC Enterococcus avium (GC 4558): strain GC 4558; for MIC Enterococcus faecalis (GC 6189): strain GC 6189
Method: as §1, §2, §3

Escherichia coli = conditions: broth dilution, 18 hours at 35° C.; for MIC Escherichia coli (ATCC 25922): strain ATCC 25922; for MIC Escherichia coli (GC 4559): strain GC 4559; for MIC Escherichia coli (GC 4560): strain GC 4560
In short: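 MIC is the lowest antibiotic concentration (tested 64-0.06 μg/mL) preventing growth of a 5×10^5 CFU/mL inoculum. Determined by broth dilution in Mueller-Hinton II medium following NCCLS standard M7-A2.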

CC(c1ccccc1)C1NC(=O)CNC(=O)C(CO)NC(=O)C(C(O)C2CNC(=N)N2C2OC(CO)C(O)C(O)C2O)NC(=O)C(C(O)C2CNC(=N)N2)NC(=O)C(Cc2ccc(O)c(NC=O)c2)NC1=O (stereo not drawn) [Example 18, Cyclo[glycyl-β-methylphenylalanyl-3-formamidotyrosyl-3-(2-iminoimidazolidin-4-yl)seryl-3-(3-hexopyranosyl-2-iminoimidazolidin-4-yl)serylseryl]]
32 µg/mL: MIC Escherichia coli (GC 4559) (Escherichia coli)
64 µg/mL: MIC Streptococcus pneumoniae (GC 1894) (Streptococcus sp.) | MIC Coagulase Negative Staphylococcus (GC 4549) (Staphylococcus sp.) | MIC Enterococcus faecium (GC 4557) (Enterococcus sp.) | MIC Escherichia coli (ATCC 25922) (Escherichia coli)
>128 µg/mL: MIC Staphylococcus aureus (ATCC 29213) (Staphylococcus sp.) | MIC Staphylococcus aureus (GC 1131) (Staphylococcus sp.) | MIC Staphylococcus aureus (GC 3051) (Staphylococcus sp.) | MIC Staphylococcus aureus (GC 3053) (Staphylococcus sp.) | MIC Staphylococcus aureus (GC 4541) (Staphylococcus sp.) | MIC Staphylococcus aureus (GC 4542) (Staphylococcus sp.) | MIC Staphylococcus aureus-SMITH (GC 4543) (Staphylococcus sp.) | MIC Staphylococcus aureus (GC 4544) (Staphylococcus sp.) | MIC Staphylococcus aureus (GC 4545) (Staphylococcus sp.) | MIC Coagulase Negative Staphylococcus (GC 4551) (Staphylococcus sp.) | MIC Enterococcus faecalis (ATCC 29212) (Enterococcus sp.) | MIC Enterococcus faecalis (GC 2242) (Enterococcus sp.) | MIC Enterococcus faecium (GC 2243) (Enterococcus sp.) | MIC Enterococcus faecalis (GC 2691) (Enterococcus sp.) | MIC Enterococcus faecalis (GC 3059) (Enterococcus sp.) | MIC Enterococcus faecalis (GC 4552) (Enterococcus sp.) | MIC Enterococcus faecalis (GC 4554) (Enterococcus sp.) | MIC Enterococcus faecium (GC 4556) (Enterococcus sp.) | MIC Enterococcus faecalis (GC 6189) (Enterococcus sp.)
16 µg/mL: MIC Escherichia coli (GC 4560) (Escherichia coli)
128 µg/mL: MIC Streptococcus pneumoniae (ATCC 6301) (Streptococcus sp.) | MIC Streptococcus pyogenes (GC 4563) (Streptococcus sp.) | MIC Streptococcus agalactiae (GC 4564) (Streptococcus sp.) | MIC Streptococcus pneumoniae (GC 4565) (Streptococcus sp.) | MIC Staphylococcus haemolyticus (GC 4546) (Staphylococcus sp.) | MIC Coagulase Negative Staphylococcus (GC 4547) (Staphylococcus sp.) | MIC Coagulase Negative Staphylococcus (GC 4548) (Staphylococcus sp.) | MIC Coagulase Negative Staphylococcus (GC 6257) (Staphylococcus sp.) | MIC Enterococcus faecalis (GC 4553) (Enterococcus sp.) | MIC Enterococcus avium (GC 4558) (Enterococcus sp.)

Cc1ccc(OC(=O)Nc2cc(CC3NC(=O)C(C(C)c4ccccc4)NC(=O)CNC(=O)C(CO)NC(=O)C(C(O)C4CNC(=N)N4C4OC(CO)C(O)C(O)C4O)NC(=O)C(C(O)C4CNC(=N)N4)NC3=O)ccc2O)cc1 (stereo not drawn) [Example 19, Cyclo[glycyl-β-methylphenylalanyl-3-[[(4-methylphenoxy)carbonyl]amino]tyrosyl-3-(2-iminoimidazolidin-4-yl)seryl-3-(3-hexopyranosyl-2-iminoimidazolidin-4-yl)serylseryl]]
64 µg/mL: MIC Streptococcus pneumoniae (GC 1894) (Streptococcus sp.)
>128 µg/mL: MIC Streptococcus pyogenes (GC 4563) (Streptococcus sp.) | MIC Streptococcus agalactiae (GC 4564) (Streptococcus sp.) | MIC Staphylococcus aureus (ATCC 29213) (Staphylococcus sp.) | MIC Staphylococcus aureus (GC 1131) (Staphylococcus sp.) | MIC Staphylococcus aureus (GC 3051) (Staphylococcus sp.) | MIC Staphylococcus aureus (GC 3053) (Staphylococcus sp.) | MIC Staphylococcus aureus (GC 4541) (Staphylococcus sp.) | MIC Staphylococcus aureus (GC 4542) (Staphylococcus sp.) | MIC Staphylococcus aureus-SMITH (GC 4543) (Staphylococcus sp.) | MIC Staphylococcus aureus (GC 4544) (Staphylococcus sp.) | MIC Staphylococcus aureus (GC 4545) (Staphylococcus sp.) | MIC Staphylococcus haemolyticus (GC 4546) (Staphylococcus sp.) | MIC Coagulase Negative Staphylococcus (GC 4547) (Staphylococcus sp.) | MIC Coagulase Negative Staphylococcus (GC 4548) (Staphylococcus sp.) | MIC Coagulase Negative Staphylococcus (GC 4551) (Staphylococcus sp.) | MIC Coagulase Negative Staphylococcus (GC 6257) (Staphylococcus sp.) | MIC Enterococcus faecalis (ATCC 29212) (Enterococcus sp.) | MIC Enterococcus faecalis (GC 2242) (Enterococcus sp.) | MIC Enterococcus faecium (GC 2243) (Enterococcus sp.) | MIC Enterococcus faecalis (GC 2691) (Enterococcus sp.) | MIC Enterococcus faecalis (GC 3059) (Enterococcus sp.) | MIC Enterococcus faecalis (GC 4552) (Enterococcus sp.) | MIC Enterococcus faecalis (GC 4554) (Enterococcus sp.) | MIC Enterococcus faecium (GC 4556) (Enterococcus sp.) | MIC Enterococcus faecalis (GC 6189) (Enterococcus sp.)
128 µg/mL: MIC Streptococcus pneumoniae (ATCC 6301) (Streptococcus sp.) | MIC Streptococcus pneumoniae (GC 4565) (Streptococcus sp.) | MIC Coagulase Negative Staphylococcus (GC 4549) (Staphylococcus sp.) | MIC Enterococcus faecalis (GC 4553) (Enterococcus sp.) | MIC Enterococcus faecium (GC 4557) (Enterococcus sp.) | MIC Enterococcus avium (GC 4558) (Enterococcus sp.) | MIC Escherichia coli (ATCC 25922) (Escherichia coli) | MIC Escherichia coli (GC 4559) (Escherichia coli) | MIC Escherichia coli (GC 4560) (Escherichia coli)

CC(c1ccccc1)C1NC(=O)CNC(=O)C(CO)NC(=O)C(C(O)C2CNC(=N)N2C2OC(CO)C(O)C(O)C2O)NC(=O)C(C(O)C2CNC(=N)N2)NC(=O)C(Cc2ccc3oc(=O)[nH]c3c2)NC1=O (stereo not drawn) [Example 22, Cyclo[3-(2,3-dihydro-2-oxo-1,3-benzoxazol-5-yl)alanyl-3-(2-iminoimidazolidin-4-yl)seryl-3-(3-hexopyranosyl-2-iminoimidazolidin-4-yl)serylserylglycyl-β-methylphenylalanyl]]
128 µg/mL: MIC Coagulase Negative Staphylococcus (GC 4548) (Staphylococcus sp.) | MIC Coagulase Negative Staphylococcus (GC 6257) (Staphylococcus sp.)
32 µg/mL: MIC Streptococcus pyogenes (GC 4563) (Streptococcus sp.) | MIC Streptococcus agalactiae (GC 4564) (Streptococcus sp.)
>128 µg/mL: MIC Staphylococcus aureus (ATCC 29213) (Staphylococcus sp.) | MIC Staphylococcus aureus (GC 1131) (Staphylococcus sp.) | MIC Staphylococcus aureus (GC 3051) (Staphylococcus sp.) | MIC Staphylococcus aureus (GC 3053) (Staphylococcus sp.) | MIC Staphylococcus aureus (GC 4541) (Staphylococcus sp.) | MIC Staphylococcus aureus (GC 4542) (Staphylococcus sp.) | MIC Staphylococcus aureus-SMITH (GC 4543) (Staphylococcus sp.) | MIC Staphylococcus aureus (GC 4544) (Staphylococcus sp.) | MIC Staphylococcus aureus (GC 4545) (Staphylococcus sp.) | MIC Staphylococcus haemolyticus (GC 4546) (Staphylococcus sp.) | MIC Coagulase Negative Staphylococcus (GC 4547) (Staphylococcus sp.) | MIC Coagulase Negative Staphylococcus (GC 4551) (Staphylococcus sp.) | MIC Enterococcus faecalis (ATCC 29212) (Enterococcus sp.) | MIC Enterococcus faecalis (GC 2242) (Enterococcus sp.) | MIC Enterococcus faecium (GC 2243) (Enterococcus sp.) | MIC Enterococcus faecalis (GC 2691) (Enterococcus sp.) | MIC Enterococcus faecalis (GC 3059) (Enterococcus sp.) | MIC Enterococcus faecalis (GC 4552) (Enterococcus sp.) | MIC Enterococcus faecalis (GC 4553) (Enterococcus sp.) | MIC Enterococcus faecalis (GC 4554) (Enterococcus sp.) | MIC Enterococcus faecium (GC 4556) (Enterococcus sp.) | MIC Enterococcus avium (GC 4558) (Enterococcus sp.) | MIC Enterococcus faecalis (GC 6189) (Enterococcus sp.) | MIC Escherichia coli (ATCC 25922) (Escherichia coli) | MIC Escherichia coli (GC 4559) (Escherichia coli) | MIC Escherichia coli (GC 4560) (Escherichia coli)
8 µg/mL: MIC Streptococcus pneumoniae (ATCC 6301) (Streptococcus sp.) | MIC Streptococcus pneumoniae (GC 1894) (Streptococcus sp.) | MIC Streptococcus pneumoniae (GC 4565) (Streptococcus sp.)
64 µg/mL: MIC Coagulase Negative Staphylococcus (GC 4549) (Staphylococcus sp.) | MIC Enterococcus faecium (GC 4557) (Enterococcus sp.)
